How the values were obtained:
Conditions in all cases: Hit No
[1] = target: T1, Endonuclease 8-like 2 (Homo sapiens) (UniProt Q969S2);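 further: fluorescence at 594 nm reports NEIL2 cutting and release of a quenched double-stranded DNA oligo substrate, reduced signal read as inhibition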
T1 sequence (whole entry): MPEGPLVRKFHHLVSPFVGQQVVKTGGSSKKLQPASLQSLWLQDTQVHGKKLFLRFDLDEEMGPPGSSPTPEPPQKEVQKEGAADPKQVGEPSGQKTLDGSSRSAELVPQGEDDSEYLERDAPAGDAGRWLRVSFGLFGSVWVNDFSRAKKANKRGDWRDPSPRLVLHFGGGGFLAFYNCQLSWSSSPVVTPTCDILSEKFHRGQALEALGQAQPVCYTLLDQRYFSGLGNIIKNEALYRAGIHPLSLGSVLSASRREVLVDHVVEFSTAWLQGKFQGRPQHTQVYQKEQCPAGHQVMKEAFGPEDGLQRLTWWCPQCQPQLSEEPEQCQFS
Description: Inhibition of NEIL2 by quantifying inhibition of NEIL2-mediated cleavage and dissociation of quenched duplex DNA oligonucleotides, measured as fluorescence at 594 nm.

[2] = target: Uracil-DNA glycosylase (Homo sapiens) (UniProt P13051);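 further: UNG excision on a quenched double-stranded DNA oligo probe, with APE1 added for strand incision and turnover, read as fluorescence at 594 nm as strands separate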
Description: Inhibition of UNG by quantifying inhibition of UNG-mediated cleavage and dissociation of quenched duplex DNA oligonucleotides, measured as fluorescence at 594 nm. To generate a functional strand incision and increase turn-over this assay is coupled to APE1.

[3] = target: T2, Single-strand selective monofunctional uracil DNA glycosylase (Homo sapiens) (UniProt Q53HV7);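 further: enzymatic SMUG1 assay coupled with APE1, reading fluorescence at 594 nm released when a quenched double-stranded DNA oligonucleotide substrate is cleaved and separated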
T2 sequence (whole entry): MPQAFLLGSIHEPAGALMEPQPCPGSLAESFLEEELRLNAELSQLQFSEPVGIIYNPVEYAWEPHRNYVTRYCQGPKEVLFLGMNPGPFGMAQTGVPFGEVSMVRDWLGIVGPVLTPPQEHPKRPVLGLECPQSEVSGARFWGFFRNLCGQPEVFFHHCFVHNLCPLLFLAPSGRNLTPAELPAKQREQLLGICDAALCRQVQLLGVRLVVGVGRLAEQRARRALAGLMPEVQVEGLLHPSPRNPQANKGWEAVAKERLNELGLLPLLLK
Description: Inhibition of SMUG1 by quantifying inhibition of SMUG1-mediated cleavage and dissociation of quenched duplex DNA oligonucleotides, measured as fluorescence at 594 nm. To generate a functional strand incision and increase turn-over this assay is coupled to APE1.

[4] = target: T3, Adenine DNA glycosylase (Homo sapiens) (UniProt Q9UIF7);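 further: human MUTYH activity read as 594 nm fluorescence from cleavage and release of a quenched DNA duplex, coupled with APE1 for strand incision, lower signal meaning inhibition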
T3 sequence (whole entry): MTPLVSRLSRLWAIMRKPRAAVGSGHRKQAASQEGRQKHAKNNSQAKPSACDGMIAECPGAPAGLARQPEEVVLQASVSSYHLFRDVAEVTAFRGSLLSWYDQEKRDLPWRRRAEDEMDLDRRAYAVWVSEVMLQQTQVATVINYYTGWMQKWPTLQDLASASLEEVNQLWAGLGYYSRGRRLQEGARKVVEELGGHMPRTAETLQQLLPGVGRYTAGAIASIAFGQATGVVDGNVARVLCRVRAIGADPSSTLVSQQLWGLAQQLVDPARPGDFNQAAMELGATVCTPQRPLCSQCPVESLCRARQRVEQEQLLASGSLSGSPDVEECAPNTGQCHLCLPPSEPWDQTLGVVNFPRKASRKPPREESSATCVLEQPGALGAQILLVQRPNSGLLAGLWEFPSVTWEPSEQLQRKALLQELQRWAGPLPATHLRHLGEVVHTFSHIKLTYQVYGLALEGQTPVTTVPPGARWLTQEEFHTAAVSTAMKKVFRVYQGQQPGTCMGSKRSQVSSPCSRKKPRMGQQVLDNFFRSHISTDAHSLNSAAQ
Description: Inhibition of MUTYH by quantifying inhibition of MUTYH-mediated cleavage and dissociation of quenched duplex DNA oligonucleotides, measured as fluorescence at 594 nm. To generate a functional strand incision and increase turn-over this assay is coupled to APE1.

[5] = target: N-glycosylase/DNA lyase (Homo sapiens) (UniProt O15527);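 further: OGG1 cleavage of a quenched duplex DNA oligonucleotide, coupled to APE1 for strand incision, read as fluorescence at 594 nm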
Description: Inhibition of OGG1 by quantifying inhibition of OGG1-mediated cleavage and dissociation of quenched duplex DNA oligonucleotides, measured as fluorescence at 594 nm. To generate a functional strand incision and increase turn-over this assay is coupled to APE1.

[6] = target: G/T mismatch-specific thymine DNA glycosylase (Homo sapiens) (UniProt Q13569);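 further: human TDG cleavage of quenched duplex DNA oligonucleotides coupled to APE1, strand release read as fluorescence at 594 nm, inhibition of TDG activity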
Description: Inhibition of TDG by quantifying inhibition of TDG-mediated cleavage and dissociation of quenched duplex DNA oligonucleotides, measured as fluorescence at 594 nm. To generate a functional strand incision and increase turn-over this assay is coupled to APE1.

[7] = target: Methyl-CpG-binding domain protein 4 (Homo sapiens) (UniProt O95243);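 further: MBD4 activity read as fluorescence at 594 nm from cleavage and release of a quenched duplex DNA oligonucleotide, with APE1 coupled to incise the strand and raise turnover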
Description: Inhibition of MBD4 by quantifying inhibition of MBD4-mediated cleavage and dissociation of quenched duplex DNA oligonucleotides, measured as fluorescence at 594 nm. To generate a functional strand incision and increase turn-over this assay is coupled to APE1.

[8] = target: Endonuclease 8-like 1 (Homo sapiens) (UniProt Q96FI4);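 further: fluorescence at 594 nm from quenched duplex DNA oligonucleotides released by NEIL1 cleavage and strand separation, reported as reduction of this enzyme activity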
Description: Inhibition of NEIL1 by quantifying inhibition of NEIL1-mediated cleavage and dissociation of quenched duplex DNA oligonucleotides, measured as fluorescence at 594 nm.

[9] = Compound Concentration 10.0 uM, tested as the 2H-labelled form

Sequence of Uracil-DNA glycosylase (Homo sapiens) (P13051 whole entry): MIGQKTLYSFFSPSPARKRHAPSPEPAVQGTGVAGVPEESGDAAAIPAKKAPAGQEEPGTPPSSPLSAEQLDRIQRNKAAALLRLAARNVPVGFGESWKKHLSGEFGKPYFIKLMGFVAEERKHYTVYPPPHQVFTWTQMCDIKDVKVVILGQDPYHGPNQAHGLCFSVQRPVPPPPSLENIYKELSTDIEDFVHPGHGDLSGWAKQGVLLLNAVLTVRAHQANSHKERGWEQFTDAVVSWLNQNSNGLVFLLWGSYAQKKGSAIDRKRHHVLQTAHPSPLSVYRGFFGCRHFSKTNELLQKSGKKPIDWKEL
Sequence of Methyl-CpG-binding domain protein 4 (Homo sapiens) (O95243 whole entry, the tested form may be a part): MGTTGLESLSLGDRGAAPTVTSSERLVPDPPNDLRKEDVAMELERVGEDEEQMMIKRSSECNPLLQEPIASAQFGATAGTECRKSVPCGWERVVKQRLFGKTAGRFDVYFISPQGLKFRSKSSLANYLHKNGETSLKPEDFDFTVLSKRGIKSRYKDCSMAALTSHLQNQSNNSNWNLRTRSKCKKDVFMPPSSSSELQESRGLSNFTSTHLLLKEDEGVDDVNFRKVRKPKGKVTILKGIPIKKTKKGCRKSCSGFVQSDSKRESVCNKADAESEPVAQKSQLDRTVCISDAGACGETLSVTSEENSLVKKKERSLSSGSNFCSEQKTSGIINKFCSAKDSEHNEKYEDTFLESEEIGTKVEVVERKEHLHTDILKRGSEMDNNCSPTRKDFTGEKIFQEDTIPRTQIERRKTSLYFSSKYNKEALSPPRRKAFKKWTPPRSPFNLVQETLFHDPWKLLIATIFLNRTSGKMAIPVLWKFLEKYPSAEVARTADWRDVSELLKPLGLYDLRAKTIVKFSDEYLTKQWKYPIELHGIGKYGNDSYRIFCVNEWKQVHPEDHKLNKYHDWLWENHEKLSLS
Sequence of N-glycosylase/DNA lyase (Homo sapiens) (O15527 whole entry): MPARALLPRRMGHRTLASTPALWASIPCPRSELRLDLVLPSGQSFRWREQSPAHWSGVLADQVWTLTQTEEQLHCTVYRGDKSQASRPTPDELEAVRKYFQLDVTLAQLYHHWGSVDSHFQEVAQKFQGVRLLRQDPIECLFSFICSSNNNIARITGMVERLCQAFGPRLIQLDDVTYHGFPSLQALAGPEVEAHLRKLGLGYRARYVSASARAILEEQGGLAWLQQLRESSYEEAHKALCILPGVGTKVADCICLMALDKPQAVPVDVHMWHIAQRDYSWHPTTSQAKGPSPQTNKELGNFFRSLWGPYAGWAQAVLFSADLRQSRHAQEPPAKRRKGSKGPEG
Sequence of Endonuclease 8-like 1 (Homo sapiens) (Q96FI4 whole entry): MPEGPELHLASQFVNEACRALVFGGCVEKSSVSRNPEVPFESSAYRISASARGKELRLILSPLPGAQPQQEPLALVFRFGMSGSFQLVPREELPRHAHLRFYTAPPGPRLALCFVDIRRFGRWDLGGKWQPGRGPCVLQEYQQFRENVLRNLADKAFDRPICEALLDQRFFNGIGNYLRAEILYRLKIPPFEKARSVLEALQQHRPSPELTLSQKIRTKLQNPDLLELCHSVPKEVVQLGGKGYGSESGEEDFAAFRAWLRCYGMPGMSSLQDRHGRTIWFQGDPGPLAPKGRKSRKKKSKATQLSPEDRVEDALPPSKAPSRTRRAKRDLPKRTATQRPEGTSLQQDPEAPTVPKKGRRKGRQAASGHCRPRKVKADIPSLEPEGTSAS
Sequence of G/T mismatch-specific thymine DNA glycosylase (Homo sapiens) (Q13569 whole entry, the tested form may be a part): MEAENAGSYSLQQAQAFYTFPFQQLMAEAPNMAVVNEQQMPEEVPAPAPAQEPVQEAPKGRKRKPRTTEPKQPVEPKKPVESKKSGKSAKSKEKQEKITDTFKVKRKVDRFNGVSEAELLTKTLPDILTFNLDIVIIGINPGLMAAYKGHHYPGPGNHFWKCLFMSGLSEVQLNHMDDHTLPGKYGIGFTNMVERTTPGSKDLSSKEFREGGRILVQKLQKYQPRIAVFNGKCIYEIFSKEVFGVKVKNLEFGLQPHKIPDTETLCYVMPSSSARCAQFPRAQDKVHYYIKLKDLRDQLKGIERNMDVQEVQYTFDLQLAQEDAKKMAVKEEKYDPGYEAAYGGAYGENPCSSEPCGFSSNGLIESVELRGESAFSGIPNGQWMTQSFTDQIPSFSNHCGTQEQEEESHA

Row | inhibition ([1]; Compound Concentration 10.0 uM) [%] | inhibition ([2]; Compound Concentration 10.0 uM) [%] | inhibition ([3]; Compound Concentration 10.0 uM) [%] | inhibition ([4]; Compound Concentration 10.0 uM) [%] | inhibition ([5]; Compound Concentration 10.0 uM) [%] | inhibition ([6]; Compound Concentration 10.0 uM) [%] | inhibition ([7]; Compound Concentration 10.0 uM) [%] | Compound | also measured
1 |  | 2.31 | 11.2 | -3.16 | -10 | 46 | 53.8 | CN([C@@H]1CCc2c(CC(=O)O)c3cc(S(C)(=O)=O)ccc3n2C1)S(=O)(=O)c1ccc(F)cc1 | 
2 | 0.0156 |  | 0.936 | -5.23 | -6.18 | 4.32 | 5.14 | COc1cc2c(CCNC(C)=O)c[nH]c2cc1Cl | inhibition ([8]; Compound Concentration 10.0 uM): -9.99%
3 | -3.37 | 3.78 | 21.2 | 3.93 | 4.45 | 70.5 | 29.7 | C[C@@H](NC(=O)Nc1cc2[nH]ncc2c(CO)n1)c1ccccc1 | 
4 | -6.87 | 1.73 | 20.9 | -4.86 | 7.36 | 43.6 | 65.1 | CCO[C@@H](Cc1ccc(OCCc2ccc(OS(C)(=O)=O)cc2)cc1)C(=O)O | 
5 |  | -3.32 | 1.08 | 11.5 | 8.25 | 50.2 | 59.6 | CC(C)(O)c1cncc(-c2nc3ccc(F)cc3n2C2CC2)c1 | 
6 | -9.42 | -0.625 | 6.82 | -5.18 | 11.4 | 31.4 | 67 | CCNC(=O)c1cc2c(N3CCOC[C@@H]3C)ccnc2n1C | 

More lines, now with the values behind:

Row | Compound | inhibition ([1]; Compound Concentration 10.0 uM) [%] | inhibition ([2]; Compound Concentration 10.0 uM) [%] | inhibition ([3]; Compound Concentration 10.0 uM) [%] | inhibition ([4]; Compound Concentration 10.0 uM) [%] | inhibition ([5]; Compound Concentration 10.0 uM) [%] | inhibition ([6]; Compound Concentration 10.0 uM) [%] | inhibition ([7]; Compound Concentration 10.0 uM) [%] | also measured
7 | Cn1nc(C(F)(F)F)cc1-c1cnc(N2CCc3cc(S(=O)(=O)Nc4c(F)cc(Cl)cc4F)cc(N4CCCC4=O)c32)nc1 | 4.87 | 1.37 | 9.91 | 17.9 | 12.6 | 53.9 | 59.5 | 
8 | Cc1nc(-c2cn3c(n2)-c2ccc(-c4cnn(C(C)(C)C(N)=O)c4)cc2OCC3)n(C(C)C)n1 |  |  |  |  |  |  |  | inhibition ([1]; Compound Concentration 1.0 uM): -7.57%; inhibition ([2]; Compound Concentration 1.0 uM): 0.537%; inhibition ([3]; Compound Concentration 1.0 uM): 19.2%; inhibition ([4]; Compound Concentration 1.0 uM): 3.04%; inhibition ([5]; Compound Concentration 1.0 uM): 1.09%; inhibition ([6]; Compound Concentration 1.0 uM): 60%; inhibition ([7]; Compound Concentration 1.0 uM): -2.34%
9 | Cc1ccc(Cn2nc(C(=O)N[C@@H]3C(C)(C)[C@@H]4CC[C@@]3(C)C4)cc2-c2ccc(Cl)c(C)c2)cc1 | 7 |  | -0.0818 | -0.363 | -0.971 | 21.7 | -2.75 | inhibition ([8]; Compound Concentration 10.0 uM): 10.9%
10 | Cc1c(NC(=O)c2cc(C(N)=O)nc3cc(F)ccc23)c(C(F)(F)F)nn1Cc1ccc(C(C)(C)C)cc1 |  |  |  |  |  |  |  | inhibition ([2]; Compound Concentration 1.0 uM): 0.116%; inhibition ([3]; Compound Concentration 1.0 uM): 16.4%; inhibition ([4]; Compound Concentration 1.0 uM): 11.6%; inhibition ([5]; Compound Concentration 1.0 uM): -8.67%; inhibition ([6]; Compound Concentration 1.0 uM): 55.8%; inhibition ([8]; Compound Concentration 1.0 uM): -8.32%; inhibition ([7]; Compound Concentration 1.0 uM): 59.5%
11 | C[C@@H]1CN(c2ncc(Cl)c(Nc3ccc4c(c3)n(CCC(C)(C)O)c(=O)n4C)n2)C[C@H](C)C1(F)F | -9.67 | 9.4 | 18 | 2.19 | -2.08 | 57.5 | 66.3 | 
12 | N#Cc1ccc(Nc2ccc3[nH]c(=O)[nH]c3c2)c(Cl)c1 |  |  |  |  |  |  |  | inhibition ([2]; Compound Concentration 1.0 uM): 1.6%; inhibition ([3]; Compound Concentration 1.0 uM): 11.9%; inhibition ([4]; Compound Concentration 1.0 uM): 7.43%; inhibition ([5]; Compound Concentration 1.0 uM): -3.21%; inhibition ([6]; Compound Concentration 1.0 uM): 38.3%; inhibition ([7]; Compound Concentration 1.0 uM): 63.1%
13 | O=C(Nc1cccnn1)N1CC(C/C=C/c2cncc(Oc3ccc(C(F)(F)F)cn3)n2)C1 |  | -1.71 | 18.1 | -2.62 | -7.39 | 97.9 | 63.3 | 
14 | CC1(C)Cn2nc(-c3ccc(F)cn3)c(-c3ccnc4[nH]ncc34)c2CO1 |  |  |  |  |  |  |  | inhibition [1, 9]: -8.4%; inhibition [2, 9]: 0.65%; inhibition [3, 9]: 12.7%; inhibition [4, 9]: -5.13%; inhibition [5, 9]: -6.31%; inhibition [6, 9]: 99.8%; inhibition [7, 9]: 55.2%
15 | Cc1cnc(-c2cc(Cl)ccc2F)cc1-n1c(=O)n(CC(N)=O)c2ccccc21 |  | 1.32 | 7.03 | -6.05 | -7.14 | 23.2 | 36.9 | inhibition ([8]; Compound Concentration 10.0 uM): -5.78%
16 | O=C(Cc1ccccc1)Nc1nnc(N2C[C@H]3C[C@@H]2CN3c2cccnn2)s1 |  |  |  |  |  |  |  | inhibition ([2]; Compound Concentration 1.0 uM): 2.12%; inhibition ([3]; Compound Concentration 1.0 uM): 13.8%; inhibition ([4]; Compound Concentration 1.0 uM): -1.58%; inhibition ([5]; Compound Concentration 1.0 uM): 0.672%; inhibition ([6]; Compound Concentration 1.0 uM): 47.1%; inhibition ([8]; Compound Concentration 1.0 uM): 2.13%; inhibition ([7]; Compound Concentration 1.0 uM): 62%
17 | CCS(=O)(=O)c1cc2cc(C[C@@](O)(CC(C)(C)c3ccc(F)cc3C(N)=O)C(F)(F)F)[nH]c2cn1 |  |  |  |  |  |  |  | inhibition ([1]; Compound Concentration 1.0 uM): -6.61%; inhibition ([2]; Compound Concentration 1.0 uM): -1.88%; inhibition ([3]; Compound Concentration 1.0 uM): 5.35%; inhibition ([4]; Compound Concentration 1.0 uM): -2.67%; inhibition ([5]; Compound Concentration 1.0 uM): -3.12%; inhibition ([6]; Compound Concentration 1.0 uM): 28.1%; inhibition ([7]; Compound Concentration 1.0 uM): 66.5%
18 | Cc1c(OCc2cccc(-c3ccc(C(=O)O)cc3)c2)cc2c(c1C)C(=O)C(C1CCCC1)C2 (stereo not drawn) | -2.23 |  | -3.76 | -1.13 | 0.771 | -4.78 | -8.74 | inhibition ([8]; Compound Concentration 10.0 uM): -5.54%
19 | O=C(Nc1ccc(-c2ccnc(Nc3ccc(N4CCOCC4)cc3)n2)cc1)[C@@H]1CCCN1 |  |  |  |  |  |  |  | inhibition ([2]; Compound Concentration 1.0 uM): 3.18%; inhibition ([3]; Compound Concentration 1.0 uM): 24.9%; inhibition ([4]; Compound Concentration 1.0 uM): 14.9%; inhibition ([5]; Compound Concentration 1.0 uM): 1.3%; inhibition ([6]; Compound Concentration 1.0 uM): 58.2%; inhibition ([8]; Compound Concentration 1.0 uM): 5.95%; inhibition ([7]; Compound Concentration 1.0 uM): -0.777%
20 | CCCn1c(=O)c2[nH]c(-c3cnn(Cc4cccc(C(F)(F)F)c4)c3)nc2n(CC)c1=O | -0.234 |  | 4.62 | -1.26 | -1.7 | -4.73 | -7.87 | inhibition ([8]; Compound Concentration 10.0 uM): -6.43%
21 | CCC(=O)N[C@H]1CC[C@@H](C(=O)N(C)c2ccc(-c3nc4ccccc4o3)cc2)C1 | 8.7 | -2.88 | 9.01 | 8.31 | -8.13 | 41.7 | 62.4 | 
